Source: the NIST ThermoML archive (doi:10.1016/j.jct.2008.01.022)
± gives the expanded uncertainty stated by the source.

Details: 101.33 kPa, Liquid; for viscosity: Capillary tube (Ostwald / Ubbelohde) method

| Structure (SMILES) | mass density (293.15 K) [kg/m3] | viscosity (293.15 K) [mPa·s] | mass density (303.15 K) [kg/m3] | viscosity (303.15 K) [mPa·s] | mass density (313.15 K) [kg/m3] | viscosity (313.15 K) [mPa·s] | mass density (323.15 K) [kg/m3] | viscosity (323.15 K) [mPa·s] | mass density (293.15 K, Vibrating tube method) [kg/m3] | mass density (303.15 K, Vibrating tube method) [kg/m3] | mass density (313.15 K, Vibrating tube method) [kg/m3] | mass density (323.15 K, Vibrating tube method) [kg/m3] |
| --- | --- | --- | --- | --- | --- | --- | --- | --- | --- | --- | --- | --- |
| CCC(O)CO (configuration not stated) [1,2-butanediol] | 1002.43 ± 0.54 | 71.87 ± 0.69 | 994.98 ± 0.54 | 37.86 ± 0.28 | 987.39 ± 0.55 | 21.49 ± 0.16 | 979.64 ± 0.56 | 13.12 ± 0.1 | – | – | – | – |
| CC(O)CO (configuration not stated) [1,2-propanediol] | 1036.3 ± 0.6 | 56.21 ± 0.32 | 1028.92 ± 0.58 | 32.63 ± 0.24 | 1021.39 ± 0.57 | 19.58 ± 0.15 | 1013.7 ± 0.56 | 12.79 ± 0.1 | – | – | – | – |
| CCCCC(O)CO (configuration not stated) [1,2-hexanediol] | 951.86 ± 2.3 | 83.41 ± 1.6 | 944.66 ± 2.3 | 42.25 ± 0.67 | 937.34 ± 2.3 | 24.12 ± 0.39 | 929.9 ± 2.3 | 14.79 ± 0.24 | – | – | – | – |
| CCCC(O)CO (configuration not stated) [1,2-pentanediol] | – | 76.96 ± 2.1 | – | 39.16 ± 1 | – | 22.52 ± 0.58 | – | 13.66 ± 0.35 | 970.35 ± 5.1 | 963.07 ± 5 | 955.65 ± 5 | 948.12 ± 4.9 |
